The text below walks through data of patent EP4782444A1, “CRYSTAL FORM OF PYRIMIDINE ANILINE COMPOUND, PREPARATION METHOD, AND USE” (TYK Medicines, Inc., priority 2023, dated 2025).

A short description of data set [1]: Pharmacokinetic study in rats, single oral gavage. Conditions: SD rats, 30 mpk.
Protocol: (§1) SD rats received a single oral gavage administration of citrate crystalline form I, mesylate crystalline form I, and free base crystalline form I, respectively. Blood samples were collected at various time points to determine drug concentrations in rat plasma post administration of tested substance and calculate PK-related parameters.
(§2) The prepared test sample solutions were analyzed by the analytical department of the present test facility using LC-MS/MS.
(§3) Animals were fasted (≥10 h) with free access to water from the day before dosing. On the test day, rats were weighed respectively, marked at the tail, and blank blood samples were collected before administration. Blood was collected via tail vein.
(§4) 0.1 mL of whole blood was collected into EDTA-Na2 anticoagulant tubes, inverted 3-4 times to mix well, centrifuged at 10,000 g, 4 °C for 5 min to separate plasma, and stored at - 80 °C until analysis. Blood was collected via tail vein.
(§5) Plasma samples were analyzed by the analytical department of the test facility using LC-MS/MS.
For data set [2] the following is noted: 37 °C.
A short description of data set [3]: Solid-state stability study (HPLC and XRPD analysis). The class given is physicochemical.
Another data set in a line: in vivo. Conditions: rat, po, 30 mg/kg.
Another data set relates to EGFR exon 20ins. Conditions: advanced non-small cell lung cancer; cited from earlier work.
Data set [4] deals with exon 20 insertion mutations of EGFR and HER2. As to conditions: reported clinical trial results; cited from earlier work.

Read-outs that look alike come from different tables or passages of the source.

Protocol for in vivo: as §1, §2, §3, §4, §5

For orientation: Solubility means how much of the substance goes into solution per volume. A high value points to much dissolved substance. The term AUC(0-t) denotes the area under the concentration-time curve up to a stated or last time point. A lower AUC(0-t) goes with less exposure. For orientation: Cmax means the peak of the concentration-time curve. As a reminder, the Tmax is the time at which the peak concentration occurs. In general, half-life refers to how long it takes for the measured level to halve. As to `C=CC(=O)Nc1cc(Nc2ncc(C(=O)OC(C)C)c(-c3cn(C)c4ccccc34)n2)c(OC)cc1N(C)[C@@H]1[C@@H]2CN(C)C[C@@H]21` [Citrate crystalline form I], the “in vivo exposure in rats compared with free base crystalline form I” value in data set [1] is listed as “higher”. For the same molecule, the “Solubility” value is more than 5000 µg/mL in data set [2] (FaSSIF, 0.5 h, 30 min); more than 5000 µg/mL in data set [2] (FaSSIF, 2 h, 120 min); 3990 µg/mL in data set [2] (FaSSIF, 24 h, 1440 min); more than 5020 µg/mL in data set [2] (FeSSIF, 0.5 h, 30 min); more than 5020 µg/mL in data set [2] (FeSSIF, 2 h, 120 min); more than 5020 µg/mL in data set [2] (FeSSIF, 24 h, 1440 min). In addition, the “Solubility” value in data set [2] (H2O, 0.5 h, 30 min) was 1910 µg/mL; in data set [2] (H2O, 2 h, 120 min), 1990 µg/mL; in data set [2] (H2O, 24 h, 1440 min), 2440 µg/mL; in data set [2] (SGF, 0.5 h, 30 min), more than 5040 µg/mL; in data set [2] (SGF, 2 h, 120 min) it was more than 5040 µg/mL; in data set [2] (SGF, 24 h, 1440 min), more than 5040 µg/mL. Moreover, the Appearance result in data set [3] (25°C/60%RH, day 3) is on record as “Unchanged”; in data set [3] (25°C/60%RH, day 7), “Unchanged”; in data set [3] (25°C/95±5%RH, day 3), “Unchanged”; in data set [3] (25°C/95±5%RH, day 7), “Unchanged”; in data set [3] (40°C/75%RH, day 3), “Unchanged”; in data set [3] (40°C/75%RH, day 7), “Unchanged”. The Appearance result in data set [3] (60 °C, day 3) was “Unchanged”; in data set [3] (60 °C, day 7) it was “Unchanged”; in data set [3] (80 °C, day 1), “Unchanged”; in data set [3] (80 °C, day 3), “Unchanged”. The “Crystalline Form” value is given as “Unchanged” in data set [3] (25°C/60%RH, day 3, XRPD); “Unchanged” in data set [3] (25°C/60%RH, day 7, XRPD); “Unchanged” in data set [3] (25°C/95±5%RH, day 3, XRPD); “Unchanged” in data set [3] (25°C/95±5%RH, day 7, XRPD); “Unchanged” in data set [3] (40°C/75%RH, day 3, XRPD); “Unchanged” in data set [3] (40°C/75%RH, day 7, XRPD). Moreover, the “Crystalline Form” value in data set [3] (60 °C, day 3, XRPD) is reported as “Unchanged”; in data set [3] (60 °C, day 7, XRPD), “Unchanged”; in data set [3] (80 °C, day 1, XRPD), “Unchanged”; in data set [3] (80 °C, day 3, XRPD), “Unchanged”. Besides, the Purity % is 98.68% in data set [3] (25°C/60%RH, day 3, open vial); 98.61% in data set [3] (25°C/60%RH, day 7, open vial); 98.66% in data set [3] (25°C/95±5%RH, day 3, open vial); 98.67% in data set [3] (25°C/95±5%RH, day 7, open vial); 98.66% in data set [3] (40°C/75%RH, day 3, open vial); 98.59% in data set [3] (40°C/75%RH, day 7, open vial). The Purity % in data set [3] (60 °C, day 3, open vial) was determined as 98.68%; in data set [3] (60 °C, day 7, open vial), 98.66%; in data set [3] (80 °C, day 1, open vial) it was 98.71%; in data set [3] (80 °C, day 3, open vial) it was 98.68%; in data set [3] (day 0 (baseline before storage), mean of 3 parallel experiments), 98.74%. The “crystalline form and chemical purity” value in data set [3] (under the five storage conditions) is “did not change significantly”. In “in vivo”, this molecule registered an AUC(0-t) of 1700 ng·h/mL. Besides, the Cmax in “in vivo” came out at 126 ng/mL. Moreover, the time to peak (Tmax) in “in vivo” was 5 h. The molecule also showed a half-life in the data set “in vivo” of 3.01 h.

Take `C=CC(=O)Nc1cc(Nc2nccc(Nc3cc(Cl)c(F)cc3C(C)(C)O)n2)c(OC)cc1N1CC[C@@H](N(C)C)C1` [DZD9008]: in the data set with EGFR exon 20ins, the objective response rate is reported as 40%.

Regarding `C=CC(=O)Nc1cc(Nc2ncc(C(=O)OC(C)C)c(-c3cn(C)c4ccccc34)n2)c(OC)cc1N(C)CCN(C)C` [TAK-788], the objective response rate in data set [4] is given as 43%.
